Assay results published in ChEMBL document CHEMBL3046786, “Synthesis of piperazinyl benzothiazole/benzoxazole derivatives coupled with 1,3,4-oxadiazole-2-thiol: novel hybrid heterocycles as anticancer agents” (Med Chem Res, 2013).

What was measured:
Format in all cases: functional, cell-based
[1] = test system: HeLa; assay: Anticancer activity against Homo sapiens (human) HeLa cells assessed as inhibition of cell viability after 72 hr by MTT assay
[2] = test system: A-431; assay: Anticancer activity against Homo sapiens (human) A431 cells assessed as inhibition of cell viability after 72 hr by MTT assay; conditions: A-431, 72 h
[3] = test system: A549; assay: Anticancer activity against Homo sapiens (human) A549 cells assessed as inhibition of cell viability after 72 hr by MTT assay; conditions: A549, 72 h
[4] = test system: MCF7; assay: Anticancer activity against Homo sapiens (human) MCF7 cells assessed as inhibition of cell viability after 72 hr by MTT assay; conditions: MCF7, 72 h
[5] = test system: HepG2; assay: Anticancer activity against Homo sapiens (human) HepG2 cells assessed as inhibition of cell viability after 72 hr by MTT assay; conditions: HepG2, 72 h

An IC50 [1] of 210 µM, an IC50 [2] of 52.7 µM and an IC50 [3] of 93.5 µM were found for COc1ccc(-c2nnc(SCCCN3CCN(c4nc5ccccc5o4)CC3)o2)cc1 in this work. It also gave an IC50 [4] of 52.8 µM and an IC50 [5] of 66.1 µM.
An IC50 [2] of 22 µM, an IC50 [3] of 22 µM and an IC50 [4] of 26 µM were found for COc1cc(/C=C/C(=O)CC(=O)/C=C/c2ccc(O)c(OC)c2)ccc1O [CURCUMIN] in this work. The IC50 [5] was 16 µM.
An IC50 [1] of 196 µM, an IC50 [2] of 136 µM and an IC50 [3] of 75.7 µM were found for Fc1ccc(-c2nnc(SCCCN3CCN(c4nc5ccccc5o4)CC3)o2)cc1 in this work. For the same molecule, the IC50 [4] was 52.3 µM and the IC50 [5] was 83.8 µM.
An IC50 [1] of 217 µM, an IC50 [2] of 67 µM and an IC50 [3] of 71.6 µM were found for CC(C)(C)Oc1ccc(-c2nnc(SCCCN3CCN(c4nc5ccccc5s4)CC3)o2)cc1 in this work. The IC50 [4] was 89.3 µM and the IC50 [5] was 202 µM.
An IC50 [1] of 63.9 µM, an IC50 [2] of 36.9 µM and an IC50 [3] of 102 µM were found for O=C(NCc1nnc(SCCCN2CCN(c3nc4ccccc4o3)CC2)o1)c1ccccc1 in this work. It also gave an IC50 [4] of 52.7 µM and an IC50 [5] of 88.9 µM.
An IC50 [1] of 99.5 µM, an IC50 [2] of 116 µM and an IC50 [3] of 181 µM were found for Oc1ccc(-c2nnc(SCCCN3CCN(c4nc5ccccc5o4)CC3)o2)cc1 in this work. The IC50 [4] was 260 µM and the IC50 [5] was 502 µM.
An IC50 [1] of 78.1 µM, an IC50 [2] of 55.9 µM and an IC50 [3] of 88.7 µM were found for O=C(NCc1nnc(SCCCN2CCN(c3nc4ccccc4s3)CC2)o1)c1ccccc1 in this work. It also gave an IC50 [4] of 39 µM and an IC50 [5] of 325 µM.
An IC50 [1] of 97.8 µM, an IC50 [2] of 46.5 µM and an IC50 [3] of 96.6 µM were found for O=[N+]([O-])c1ccc(-c2nnc(SCCCN3CCN(c4nc5ccccc5s4)CC3)o2)cc1 in this work. The IC50 [4] was 118 µM and the IC50 [5] was 93.3 µM.
An IC50 [1] of 134 µM, an IC50 [2] of 67 µM and an IC50 [3] of 71.7 µM were found for Fc1ccc(-c2nnc(SCCCN3CCN(c4nc5ccccc5s4)CC3)o2)cc1 in this work. For the same molecule, the IC50 [4] was 84.1 µM and the IC50 [5] was 234 µM.
An IC50 [1] of 229 µM, an IC50 [2] of 93.4 µM and an IC50 [3] of 257 µM were found for c1ccc(-c2nnc(SCCCN3CCN(c4nc5ccccc5s4)CC3)o2)cc1 in this work. For the same molecule, the IC50 [4] was 76.9 µM and the IC50 [5] was 217 µM.
An IC50 [1] of 269 µM, an IC50 [2] of 65.8 µM and an IC50 [3] of 263 µM were found for CC(C)(C)Oc1ccc(-c2nnc(SCCCN3CCN(c4nc5ccccc5o4)CC3)o2)cc1 in this work. For the same molecule, the IC50 [4] was 94.9 µM and the IC50 [5] was 121 µM.
An IC50 [1] of 114 µM, an IC50 [2] of 46.9 µM and an IC50 [3] of 90.8 µM were found for O=[N+]([O-])c1ccc(-c2nnc(SCCCN3CCN(c4nc5ccccc5o4)CC3)o2)cc1 in this work. The IC50 [4] was 90.1 µM and the IC50 [5] was 67.2 µM.
An IC50 [1] of 243 µM, an IC50 [2] of 51.6 µM and an IC50 [3] of 62.5 µM were found for Brc1ccc(-c2nnc(SCCCN3CCN(c4nc5ccccc5s4)CC3)o2)cc1 in this work. It also gave an IC50 [4] of 96.3 µM and an IC50 [5] of 103 µM.
An IC50 [1] of 177 µM, an IC50 [2] of 69.2 µM and an IC50 [3] of 110 µM were found for Clc1ccc(-c2nnc(SCCCN3CCN(c4nc5ccccc5s4)CC3)o2)cc1 in this work. The IC50 [4] was 116 µM and the IC50 [5] was 87.7 µM.
An IC50 [1] of 139 µM, an IC50 [2] of 54.7 µM and an IC50 [3] of 62.1 µM were found for Oc1ccc(-c2nnc(SCCCN3CCN(c4nc5ccccc5s4)CC3)o2)cc1 in this work. It also gave an IC50 [4] of 81.9 µM and an IC50 [5] of 364 µM.
An IC50 [1] of 101 µM, an IC50 [2] of 89.6 µM and an IC50 [3] of 127 µM were found for Clc1ccc(-c2nnc(SCCCN3CCN(c4nc5ccccc5o4)CC3)o2)cc1 in this work. It also gave an IC50 [4] of 99.7 µM and an IC50 [5] of 121 µM.
An IC50 [1] of 179 µM, an IC50 [2] of 61.6 µM and an IC50 [3] of 53.9 µM were found for Cc1ccc(-c2nnc(SCCCN3CCN(c4nc5ccccc5s4)CC3)o2)cc1 in this work. For the same molecule, the IC50 [4] was 107 µM and the IC50 [5] was 96.7 µM.
An IC50 [1] of 165 µM, an IC50 [2] of 56.2 µM and an IC50 [3] of 90.3 µM were found for COc1ccc(-c2nnc(SCCCN3CCN(c4nc5ccccc5s4)CC3)o2)cc1 in this work. It also gave an IC50 [4] of 171 µM and an IC50 [5] of 134 µM.
An IC50 [1] of 67 µM, an IC50 [2] of 57.6 µM and an IC50 [3] of 108 µM were found for c1ccc(-c2nnc(SCCCN3CCN(c4nc5ccccc5o4)CC3)o2)cc1 in this work. It also gave an IC50 [4] of 117 µM and an IC50 [5] of 102 µM.
An IC50 [1] of 187 µM, an IC50 [2] of 57.8 µM and an IC50 [3] of 123 µM were found for Brc1ccc(-c2nnc(SCCCN3CCN(c4nc5ccccc5o4)CC3)o2)cc1 in this work. For the same molecule, the IC50 [4] was 115 µM and the IC50 [5] was 67.5 µM.
An IC50 [1] of 133 µM, an IC50 [2] of 100 µM and an IC50 [3] of 106 µM were found for Cc1ccc(-c2nnc(SCCCN3CCN(c4nc5ccccc5o4)CC3)o2)cc1 in this work. The IC50 [4] was 60.4 µM and the IC50 [5] was 154 µM.
